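48-hour exposure; five concentrations; linearly interpolated endpoints. GI50 marks 50% less growth. TGI: total growth inhibition.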
Assays:
Test in all cases: inhibition of tumour cell growth, NCI panel, 48 h
SK-MEL-28 melanoma = tested on: SK-MEL-28 melanoma
SK-MEL-5 melanoma = tested on: SK-MEL-5 melanoma
COLO 205 colon = tested on: COLO 205 colon
HCT-15 colon = tested on: HCT-15 colon
ACHN renal = tested on: ACHN renal
CAKI-1 renal = tested on: CAKI-1 renal
HS 578T breast = tested on: HS 578T breast
LOX IMVI melanoma = tested on: LOX IMVI melanoma
HL-60(TB) leukemia = tested on: HL-60(TB) leukemia
SF-539 CNS = tested on: SF-539 CNS

| SMILES | TGI (SK-MEL-28 melanoma) [µM] | TGI (SK-MEL-5 melanoma) [µM] | TGI (COLO 205 colon) [µM] | TGI (HCT-15 colon) [µM] | TGI (ACHN renal) [µM] | TGI (CAKI-1 renal) [µM] | TGI (HS 578T breast) [µM] | TGI (LOX IMVI melanoma) [µM] | TGI (HL-60(TB) leukemia) [µM] | TGI (SF-539 CNS) [µM] | GI50 (SK-MEL-28 melanoma) [µM] | GI50 (SK-MEL-5 melanoma) [µM] | GI50 (COLO 205 colon) [µM] | GI50 (HCT-15 colon) [µM] | GI50 (ACHN renal) [µM] | GI50 (CAKI-1 renal) [µM] | GI50 (HS 578T breast) [µM] | GI50 (LOX IMVI melanoma) [µM] | GI50 (HL-60(TB) leukemia) [µM] | GI50 (SF-539 CNS) [µM] |
| --- | --- | --- | --- | --- | --- | --- | --- | --- | --- | --- | --- | --- | --- | --- | --- | --- | --- | --- | --- | --- |
| NS(=O)(=O)c1ccc(N=Nc2c(O)c(C(=O)O)cc3ccccc23)cc1 | > 100 | > 100 | > 84.2 | > 100 | > 100 | > 100 | > 100 | > 100 | > 100 | > 100 |  |  |  |  |  |  |  |  |  |  |
| CNCCOC(=O)/C=C1\CC[C@H]2[C@@H]([C@@H](O)C(=O)[C@@H]3[C@]2(C)CC[C@H](O)[C@]3(C)C(=O)OC)[C@H]1C | 2.61 | 0.734 | 3.04 | 2.55 | 0.785 | 1.08 | 2.06 | 1.38 | 0.687 | 0.701 | 1.06 | 0.252 | 1.55 | 0.608 | 0.25 | 0.315 | 0.281 | 0.357 | 0.244 | 0.267 |
| O=C(c1ccco1)c1c(C(F)(F)F)nc2ccc(Cl)cc2[n+]1[O-] | > 100 | 31.6 | > 100 | > 100 | > 100 | 85.8 | 51.4 | > 100 | 85.1 | > 100 | > 100 | 17.5 | 70.4 | 61 | > 100 | 26.6 | 19.8 | > 100 | 25.2 | > 100 |
| N#C/C(=C\c1ccc2ccccc2c1)C(=O)c1ccccc1 | > 100 | > 78.5 | > 100 | > 100 | > 100 | > 100 | 77.6 | 52 | 71.9 | > 100 |  |  |  |  |  |  |  |  |  |  |
| S=c1[nH]c(=S)c2cc3ccccc3nc2[nH]1 | > 100 | > 100 | > 100 | > 100 | > 100 | > 100 | > 100 | > 100 | > 100 | > 100 | > 100 | 30 | 20.3 | > 100 | > 100 | > 100 | 71.3 | > 100 | 38 | > 100 |
| O=C(Nc1ccc(Br)cc1F)c1cc(Cl)ccc1O | 2.07 | 0.815 | 8.2 | 10.5 | > 31.3 | 2.85 | 2.81 | 3.76 | 3.19 | 5.85 | 0.399 | 0.273 | 2.74 | 0.972 | 0.619 | 0.319 | 0.327 | 0.501 | 0.481 | 0.594 |
| NC(N)=NCCCC(=O)O | > 100 | > 100 | > 100 | > 100 | > 100 | > 100 | > 100 | > 100 | > 100 | > 100 |  |  |  |  |  |  |  |  |  |  |

— PubChem BioAssay (NCI)
